Laboratory results: US12043617B2, “4-(N-methyl) aminopiperidine myricetin derivative containing dithiocarbamate, preparation method and application” (Guizhou University, priority 2019, dated 2024)

Tested on: SMMC-7721 cells
Experiment: MTT colorimetry, inhibition of hepatocellular carcinoma SMMC-7721 cell activity
Assay type: cell-based
Details: 48 hours
Experimental: Test for Inhibition of Cancer Cell Activity by Compound of Embodiment 19 (Taking Hepatocellular Carcinoma SMMC-7721 Cells as an embodiment):
SMMC-7721 cells are cultured in DMEM high sugar medium containing 10% fetal bovine serum in a saturated humidity incubator at 37° C. and 5% CO2. The culture medium is changed every two days and passaged every 3-4 days. The drug is prepared as 1 mmol/L and 10 mmol/L storage solution using DMSO as solvent, when used, the concentration is diluted into 1 μmol/L and 10 μmol/L with culture medium, using DMSO as negative control group and gemcitabine as positive control group to act on cells in logarithmic growth phase.
Cells in logarithmic growth phase are digested with 0.025% pancreatin, and then digested with DMEM high sugar medium containing 10% fetal bovine serum. After centrifugation, the cells are suspended in DMEM high sugar medium containing 10% fetal bovine serum. Take a 96-well plate and add 200 μL of sterile water seal to each hole around the plate to ensure saturated humidity in the experiment. In the middle six rows, 100 μL of cell suspension are added respectively, and the cell concentration is about 3.5×10^4 cells/mL. The last row is blank control group, and the same volume of complete culture medium is added. In 37° C., 5% CO2 saturated humidity incubator culture for 24 hours, cells completely adhere to the wall, remove the culture medium, add complete culture medium containing different drugs, 200 μL per hole. The blank control group is added with 200 μL of complete culture medium, and the culture is continued. After 24 hours, the drug effect is observed and photographed under an inverted microscope. After 48 hours, the drug effect is also observed and photographed under an inverted microscope. Then the supernatant is removed. 100 μL of 0.5 mg/mL MTT solution is added to each well. After 4 hours of continuous culture, purple crystal formazan is generated. 100 μL of 10% SDS is added to each well. After 12 hours of culture in an incubator at 37° C., the OD value is measured with an enzyme reader at A571 wavelength. Repeat 6 wells for each sample concentration, and calculate the inhibition rate by taking the average value.

COc1cc(OC)c2c(=O)c(OCCCCN(C)C3CCN(C(=S)SCc4cccc(C)c4)CC3)c(-c3cc(OC)c(OC)c(OC)c3)oc2c1 [Compound A14, 3-methylbenzyl-4-((4-((5,7-dimethoxy-4-oxo-2-(3,4,5-trimethoxyphenyl)-4H-benzopyran-3-yl)oxy)butyl) (methyl)amino) piperidine-1-dithiocarboxylic acid]
Inhibition Rate (%) (1 μmol/L): 96.65 ± 2.61 % | Inhibition Rate (%) (10 μmol/L): 100 ± 0.42 %

COc1cc(OC)c2c(=O)c(OCCCN(C)C3CCN(C(=S)SCc4ccc(Cl)nc4)CC3)c(-c3cc(OC)c(OC)c(OC)c3)oc2c1 [Compound A9, (6-chloropyridine-3-yl) methyl 4-((3-((5,7-dimethoxy-4-oxo-2-(3,4,5-trimethoxyphenyl)-4H-benzopyran-3-yl)oxygen)propyl) (methyl)amino) piperidine-1-dithiocarboxylic acid]
Inhibition Rate (%) (1 μmol/L): 18.83 ± 3.15 % | Inhibition Rate (%) (10 μmol/L): 99.76 ± 1.06 %

COc1cc(OC)c2c(=O)c(OCCCN(C)C3CCN(C(=S)SCc4ccccc4Cl)CC3)c(-c3cc(OC)c(OC)c(OC)c3)oc2c1 [Compound A2, 2-chlorobenzyl-4-((3-((5,7-dimethoxy-4-oxo-2-(3,4,5-trimethoxyphenyl)-4H-chromene-3-yl)oxy)propyl)(methyl)amino)piperidine-1-dithiocarboxylic acid]
Inhibition Rate (%) (1 μmol/L): 25.44 ± 3.25 % | Inhibition Rate (%) (10 μmol/L): 96.13 ± 3.42 %

COc1cc(OC)c2c(=O)c(OCCCCN(C)C3CCN(C(=S)SCc4ccc([N+](=O)[O-])cc4)CC3)c(-c3cc(OC)c(OC)c(OC)c3)oc2c1 [Compound A16, 4-nitrobenzyl-4-((4-((5,7-dimethoxy-4-oxo-2-(3,4,5-trimethoxyphenyl)-4H-benzopyran-3-yl)oxy)butyl) (methyl)amino) piperidine-1-dithiocarboxylic acid]
Inhibition Rate (%) (1 μmol/L): 26.84 ± 4.36 % | Inhibition Rate (%) (10 μmol/L): 99.85 ± 0.71 %

COc1cc(OC)c2c(=O)c(OCCCN(C)C3CCN(C(=S)SCc4ccccc4F)CC3)c(-c3cc(OC)c(OC)c(OC)c3)oc2c1 [Compound A4, 2-fluorobenzyl 4-((3-((5,7-dimethoxy-4-oxo-2-(3,4,5-trimethoxyphenyl)-4H-chromene-3-yl)oxy)propyl)(methyl)amino) piperidine-1-dithiocarboxylic acid]
Inhibition Rate (%) (1 μmol/L): 20.66 ± 1.21 % | Inhibition Rate (%) (10 μmol/L): 99.85 ± 1.64 %

COc1cc(OC)c2c(=O)c(OCCCCN(C)C3CCN(C(=S)SCc4ccc(Cl)cc4)CC3)c(-c3cc(OC)c(OC)c(OC)c3)oc2c1 [Compound A10, 4-chlorobenzyl-4-((4-((5,7-dimethoxy-4-oxo-2-(3,4,5-trimethoxyphenyl)-4H-benzopyran-3-yl)oxy)butyl) (methyl)amino) piperidine-1-dithiocarboxylic acid]
Inhibition Rate (%) (1 μmol/L): 92.83 ± 3.84 % | Inhibition Rate (%) (10 μmol/L): 97.85 ± 3.35 %

Nc1ccn([C@@H]2O[C@H](CO)[C@@H](O)C2(F)F)c(=O)n1 [Gencitabine, gemcitabine, reference compound]
inhibition at 1 µM (Homo sapiens, 1 μmol/L, read-out: Inhibition Rate (%)): 55.7 ± 2.26% | inhibition at 10 µM (Homo sapiens, 10 μmol/L, read-out: Inhibition Rate (%)): 63.5 ± 2.18%

COc1cc(OC)c2c(=O)c(OCCCCN(C)C3CCN(C(=S)SCc4ccccc4C)CC3)c(-c3cc(OC)c(OC)c(OC)c3)oc2c1 [Compound A15, 2-methylbenzyl-4-((4-((5,7-dimethoxy-4-oxo-2-(3,4,5-trimethoxyphenyl)-4H-benzopyran-3-yl)oxy)butyl) (methyl)amino) piperidine-1-dithiocarboxylic acid]
Inhibition Rate (%) (1 μmol/L): 16.38 ± 3.82 % | Inhibition Rate (%) (10 μmol/L): 99.52 ± 1.12 %

COc1cc(OC)c2c(=O)c(OCCCN(C)C3CCN(C(=S)SCc4ccccc4C)CC3)c(-c3cc(OC)c(OC)c(OC)c3)oc2c1 [Compound A6, 2-methylbenzyl 4-((3-((5,7-dimethoxy-4-oxo-2-(3,4,5-trimethoxyphenyl)-4H-chromene-3-yl)oxy)propyl) (methyl)amino) piperidine-1-dithiocarboxylic acid]
Inhibition Rate (%) (1 μmol/L): 34.32 ± 2.69 % | Inhibition Rate (%) (10 μmol/L): 98.12 ± 2.76 %

COc1cc(OC)c2c(=O)c(OCCCN(C)C3CCN(C(=S)SCc4ccc(Cl)cc4Cl)CC3)c(-c3cc(OC)c(OC)c(OC)c3)oc2c1 [Compound A3, 2,4-dichlorobenzyl 4-((3-((5,7-dimethoxy-4-oxo-2-(3,4,5-trimethoxyphenyl)-4H-chromene-3-yl)oxy)propyl) (methyl)amino) piperidine-1-dithiocarboxylic acid]
Inhibition Rate (%) (1 μmol/L): 18.16 ± 2.14 % | Inhibition Rate (%) (10 μmol/L): 97.35 ± 1.78 %

COc1cc(OC)c2c(=O)c(OCCCCN(C)C3CCN(C(=S)SCc4cccnc4)CC3)c(-c3cc(OC)c(OC)c(OC)c3)oc2c1 [Compound A17, pyridine-3-ylmethyl-4-((4-((5,7-dimethoxy-4-oxo-2-(3,4,5-trimethoxyphenyl)-4H-benzopyran-3-yl)oxy)butyl) (methyl)amino) piperidine-1-dithiocarboxylic acid]
Inhibition Rate (%) (1 μmol/L): 68.42 ± 2.35 % | Inhibition Rate (%) (10 μmol/L): 100 ± 1.31 %

COc1cc(OC)c2c(=O)c(OCCCCN(C)C3CCN(C(=S)SCc4ccc(Cl)cc4Cl)CC3)c(-c3cc(OC)c(OC)c(OC)c3)oc2c1 [Compound A12, 2,4-dichlorobenzyl-4-((4-((5,7-dimethoxy-4-oxo-2-(3,4,5-trimethoxyphenyl)-4H-benzopyran-3-yl)oxy)butyl) (methyl)amino) piperidine-1-dithiocarboxylic acid]
Inhibition Rate (%) (1 μmol/L): 98.09 ± 2.68 % | Inhibition Rate (%) (10 μmol/L): 99.28 ± 1.04 %

COc1cc(OC)c2c(=O)c(OCCCN(C)C3CCN(C(=S)SCc4cccnc4)CC3)c(-c3cc(OC)c(OC)c(OC)c3)oc2c1 [Compound A8, pyridine-3-ylmethyl 4-((3-((5,7-dimethoxy-4-oxo-2-(3,4,5-trimethoxyphenyl)-4H-chromene-3-yl)oxy)propyl) (methyl)amino) piperidine-1-dithiocarboxylic acid]
Inhibition Rate (%) (1 μmol/L): 15.48 ± 2.74 % | Inhibition Rate (%) (10 μmol/L): 99.85 ± 1.64 %

COc1cc(OC)c2c(=O)c(OCCCN(C)C3CCN(C(=S)SCc4ccc(Cl)cc4)CC3)c(-c3cc(OC)c(OC)c(OC)c3)oc2c1 [Compound A1, 4-chlorobenzyl 4-((3-((5,7-dimethoxy-4-oxo-2-(3,4,5-trimethoxyphenyl)-4H-chromene-3-yl)oxy)propyl)(methyl)amino)piperidine-1-dithiocarboxylic acid]
Inhibition Rate (%) (1 μmol/L): 21.82 ± 2.34 % | Inhibition Rate (%) (10 μmol/L): 95.51 ± 4.16 %

COc1cc(OC)c2c(=O)c(OCCCCN(C)C3CCN(C(=S)SCc4ccc(Cl)nc4)CC3)c(-c3cc(OC)c(OC)c(OC)c3)oc2c1 [Compound A18, (6-chloropyridine-3-yl) methyl-4-((4-((5,7-dimethoxy-4-oxo-2-(3,4,5-trimethoxyphenyl)-4H-benzopyran-3-yl)oxy)butyl) (methyl)amino) piperidine-1-dithiocarboxylic acid]
Inhibition Rate (%) (1 μmol/L): 33.58 ± 1.67 % | Inhibition Rate (%) (10 μmol/L): 100 ± 0.42 %

COc1cc(OC)c2c(=O)c(OCCCCN(C)C3CCN(C(=S)SCc4ccccc4F)CC3)c(-c3cc(OC)c(OC)c(OC)c3)oc2c1 [Compound A13, 2-fluorobenzyl-4-((4-((5,7-dimethoxy-4-oxo-2-(3,4,5-trimethoxyphenyl)-4H-benzopyran-3-yl)oxy)butyl) (methyl)amino) piperidine-1-dithiocarboxylic acid]
Inhibition Rate (%) (1 μmol/L): 46.96 ± 4.65 % | Inhibition Rate (%) (10 μmol/L): 99.76 ± 1.06 %

COc1cc(OC)c2c(=O)c(OCCCCN(C)C3CCN(C(=S)SCc4ccccc4Cl)CC3)c(-c3cc(OC)c(OC)c(OC)c3)oc2c1 [Compound A11, 2-chlorobenzyl-4-((4-((5,7-dimethoxy-4-oxo-2-(3,4,5-trimethoxyphenyl)-4H-benzopyran-3-yl)oxy)butyl) (methyl)amino) piperidine-1-dithiocarboxylic acid]
Inhibition Rate (%) (1 μmol/L): 91.00 ± 2.86 % | Inhibition Rate (%) (10 μmol/L): 99.85 ± 1.64 %

COc1cc(OC)c2c(=O)c(OCCCN(C)C3CCN(C(=S)SCc4ccc([N+](=O)[O-])cc4)CC3)c(-c3cc(OC)c(OC)c(OC)c3)oc2c1 [Compound A7, 4-nitrobenzyl 4-((3-((5,7-dimethoxy-4-oxo-2-(3,4,5-trimethoxyphenyl)-4H-chromene-3-yl)oxy)propyl) (methyl)amino) piperidine-1-dithiocarboxylic acid]
Inhibition Rate (%) (1 μmol/L): 27.70 ± 1.09 % | Inhibition Rate (%) (10 μmol/L): 99.35 ± 3.48 %

COc1cc(OC)c2c(=O)c(OCCCN(C)C3CCN(C(=S)SCc4cccc(C)c4)CC3)c(-c3cc(OC)c(OC)c(OC)c3)oc2c1 [Compound A5, 3-methylbenzyl 4-((3-((5,7-dimethoxy-4-oxo-2-(3,4,5-trimethoxyphenyl)-4H-chromene-3-yl)oxy)propyl) (methyl)amino) piperidine-1-dithiocarboxylic acid]
Inhibition Rate (%) (1 μmol/L): 12.32 ± 2.39 % | Inhibition Rate (%) (10 μmol/L): 97.52 ± 1.12 %
